Results taken from US8227424B2, “Collagen peptide, dipeptide and malady inhibitor” (Nitta Gelatin Inc., priority 2008, dated 2012).
Square brackets hold non-standard residues; d marks the D form. Ends that are not written are not given here. Peptide text beside a SMILES is read from it. Hyp = O=C(O)[C@@H]1C[C@@H](O)CN1

Columns and labels:
in vivo = details: male, Wister, rat, po, 215 nmol/10 mL
Procedure: (§1) Wister strain male rats (170 g) were caused to go on a fast of one night and then subjected to experiments.
(§2) As a test method, a cannula was equipped to a heart and portal vein of each rat, and one-directional perfusion was carried out. The perfusion liquid being used was prepared in a way that to a Krebs-Ringer bicarbonate solution (KRB solution, pH 7.4) comprising 9.0 g of NaCl, 8 mL of 5.75% KCl, 2 mL of 10.55% KH2PO4, 2 mL of 19% MgSO4, 2.73 g of NaHCO3, 3.43 g of glucose and 1255 mL of water, there was added 10 g of bovine serum albumin, 0.5 mL of dexamethasone (0.123 mg/mL) and 0.5 mL of noradrenaline (0.024 mg/mL) relative to 500 mL of the aforementioned KRB solution.
(§3) An amount of 0.5 mL of 30% sulfosalicylic acid was added to 5.0 mL of perfusion sample liquid taken from portal vein, and the resultant mixture was vigorously stirred and then left in a refrigerator for one night. This sample was centrifuged at 3000 rpm for 10 minutes to remove protein.
(§4) Furthermore, 3.0 mL of the aforementioned centrifugal supernatant was weighed out and placed into a screw opening test tube, and thereto an equivalent of concentrated hydrochloric acid was added to carry out hydrolysis at 110° C. for 24 hours. Concentration to dryness was carried out with an evaporator to remove hydrochloric acid, and then the residue was dissolved into 5 mL of distilled water, and thereto several drops of saturated lithium hydroxide solution were added to adjust pH to the range of 5 to 7, and the volume was adjusted to 10 mL. […] A value obtained by subtracting the free type Hyp amount before hydrolysis from the total Hyp amount after hydrolysis is a peptide-form Hyp amount.
(§5) Analysis of the dipeptides in the perfusion liquid was carried out by reversed-phase HPLC analysis. As HPLC apparatus, LCSS-905 system produced by JASCO Corporation comprising a liquid-feeding pump, a decassa, an autosamplor, a column oven, ultraviolet spectrophotometer, a printer and a system controller was used. As the reversed-phase column, Nova Pak C18 (3.9×150 mm) was used.
(§6) A linear-gradient moving bed of a 0.1% TFA-containing acetonitrile-water system was used, the injection amount of the sample was 70 μL, and the flow rate was 1 mL/min.
(§7) As HPLC apparatus, U980HPLC (produced by JASCO Corporation) was used. This apparatus was equipped with an ODS (C18) column (Mightysil RP-18, 2×250 mm, produced by Kanto Chemical Co Ltd). The moving bed solvent was a 0.2% formic acid-containing acetonitrile-water system, and the concentration was raised from 0% to 40% acetonitrile by linear gradient in 40 minutes, and washing was carried out with 100% acetonitrile for 10 minutes. The injection amount of the sample was 10 μL, and the column temperature was 40° C.
(§8) The MS analysis was carried out in accordance with an MS/MS system with a Quattro LC mass spectrophotometer (Micromass, Manchester, UK) by a Multiple Reaction Monitoring method of 4 channels. That is to say, an eluate from the HPLC was monitored by m/z being [M+H]^+ and m/s of its fragment ion species.

[1] = system: precursory cartilage cell stock ATDC5; experiment: Evaluation Test 1-3: inhibition of degeneration of cartilage cells (ALP); type: cell-based; details: ATDC5, 2.5 mmol/L end concentration, after 5 days culture, control (blank) = 100
Procedure: The Hyp-Gly, a 1:1 mixture of the Hyp-Gly and the Pro-Hyp and a 1:1:1 mixture of the Hyp-Gly, the Pro-Hyp and the Ala-Hyp were used, and each dipeptide was added to a precursory cartilage cell stock ATDC5 culture liquid so as to be 2.5 mmol/L in end concentration. After 5 days from the culture, each inhibition activity of alkaline phosphatase (ALP) being a marker enzyme for hypertrophied cartilages and calcification was examined. In the same way, the ALP activity when using the other dipeptides (Pro-Hyp, Ala-Hyp, Leu-Hyp, Phe-Hyp, Ser-Hyp), the tripeptide (Pro-Hyp-Gly) and the amino acids (Pro, Hyp) was examined. Furthermore, as a control, the ALP activity when adding no peptide (blank) was also examined.

osteoclasts = experiment: Evaluation Test 1-1: Pit assay, osteoclasts cultured on dentin slices; type: cell-based, mouse; details: control (blank) = 100, n = 6; for Relative number (%) of TRAP positive multinucleate giant cells (osteoclasts) in culture on dentin slices: culture about 1 week on dentin slices; for Relative number (%) of Pit: number of absorption pits on dentin slices, culture about 1 week
Procedure: In addition, the degree of inhibition of differentiation and activation of osteoclasts by the various peptides and amino acids was evaluated by the following Pit assay. That is to say, the Pit assay where osteoclasts were cultured on […] was carried out in accordance with Kakudo S, et al. (1996). J. Bone Miner. Metab. 14: 129-136, specifically, as follows.
Precursory cells of osteoclasts derived from young mouse […] were freeze-preserved at −80° C. together with a bone marrow stroma cells-containing suspension in the presence of 10% DMSO, thereby making matured osteoclasts extinct.
These cells of 2.0×10^5 in number were seeded into each well of a 96-well plate where dentin slices were set, and each peptide to be tested was added to the culture liquid, and culture was carried out at 37° C. in 5% CO2 for about 1 week. Thereafter, cells were removed from the dentin slices by a silicon-made rubber POLICEMAN, and then the dentin slices were dyed with an […] for several minutes. Hereupon, the number of TRAP dyeing positive multinucleate giant cells (osteoclasts) was counted by the TRAP dyeing, and the number relative to the number of cells in the control (blank) was calculated. Thereafter, the Pit number (number of absorption pits) by osteoclasts was counted under a microscope, and the degree of inhibition of activity of osteoclasts by each peptide to be tested was indicated by the ratio relative to the blank (control).

[2] = system: osteoclasts (primary mouse bone marrow cell culture); experiment: Evaluation Test 1-1: osteoclast differentiation culture on plastic Petri dish (TRAP); type: cell-based; details: 625 μM end concentration, after 6 days culture, control (blank) = 100, n = 6
Procedure: The evaluation was carried out in accordance with Kobayashi Y. et al.'s osteoclast differentiation culture method [J. Bone Miner. Metab. (2004) 22: p. 318-328].
That is to say, the Hyp-Gly and a 1:1 mixture of the Hyp-Gly and the Pro-Hyp were used, and each of them was added to a primary mouse bone marrow cell culture liquid so as to be 625 μM in end concentration. After 6 days from the culture, each inhibition activity of tartaric acid resistant acid phosphatase (TRAP) being a marker enzyme was examined. In the same way, the TRAP inhibition activity when using the other dipeptides (Pro-Hyp, Ala-Hyp, Leu-Hyp, Phe-Hyp, Ser-Hyp), the tripeptide (Pro-Hyp-Gly) and the amino acids (Pro, Hyp) was examined. Furthermore, as a control, the TRAP inhibition activity when adding no peptide (blank) was also examined.

[3] = system: osteoblast stock MC3T3-E1; experiment: Evaluation Test 1-2: promotion of differentiation and activation of osteoblasts (ALP); type: cell-based; details: MC3T3-E1, 2.5 mmol/L end concentration, after 10 days culture, control (blank) = 100
Procedure: Each of dexamethasone (end concentration: 1 nmol/L), β-glycerophosphoric acid (end concentration: 5 mmol/L), and ascorbic acid (end concentration: 100 μg/mL) was added to an osteoblast stock MC3T3-E1 culture liquid, and then the Hyp-Gly and a 1:1 mixture of the Hyp-Gly and the Pro-Hyp were used, and each of them was added to the aforementioned culture liquid so as to be 2.5 mmol/L in end concentration. After 10 days from the culture, each promotion activity of alkaline phosphatase (ALP) being a marker enzyme for differentiation and calcification of osteoblasts was examined. In the same way, the ALP promotion activity when using the other dipeptides (Pro-Hyp, Ala-Hyp, Leu-Hyp, Phe-Hyp, Ser-Hyp), the tripeptide (Pro-Hyp-Gly) and the amino acids (Pro, Hyp) was examined. Furthermore, as a control, the ALP promotion activity when adding no peptide (blank) was also examined.

[4] = system: precursory cartilage cell stock ATDC5; experiment: Evaluation Test 2-2: ALP inhibition activity of Pro-Hyp and comparisons; type: cell-based; details: ATDC5, 2.5 mM, after 5 days culture, N group = 1.0
Procedure: The aforementioned PC (PC group), FC (FC group) and PC-CA (PC-CA group) were used, and each collagen peptide was added to a precursory cartilage cell stock ATDC5 culture liquid so as to be 0.1% in end concentration. After 5 days from the culture, each inhibition activity of alkaline phosphatase (ALP) being a marker enzyme for hypertrophied cartilages and calcification was examined. For comparison, the ALP inhibition activity when adding no peptide (N group), the ALP inhibition activity when using peptone (Pe group) of 0.1% in end concentration, and the ALP inhibition activity when using the aforementioned PC-Cont (PC-Cont group) and PC-CA-Cont (PC-CA-Cont group) were also examined.
The ALP inhibition activity was examined in the same way as of evaluation test 2-1 except that: a dipeptide Pro-Hyp as synthesized by a solid-phase method (produced by PH Japan) ([Pro-Hyp] group) was used, the amount of its addition was changed to 2.5 mM and, for comparison, no peptide was added (N group) or glycine being a free amino acid (Gly group), proline being a free amino acid (Pro group), hydroxyproline being a free amino acid (Hyp group), a free amino acid mixture of proline and hydroxyproline ([Pro+Hyp] group), a free amino acid mixture of glycine, proline and hydroxyproline ([Gly+Pro+Hyp] group), and a tripeptide Pro-Hyp-Gly as synthesized by a solid-phase method (produced by PH Japan) ([Pro-Hyp-Gly] group) were used.

[5] = rat, in vivo
Procedure: as §1, §2, §3, §4, §5, §6, §7, §8

level at time molar (in vivo) [µM] | Compound | Relative value (%) of ALP [1] [%] | Relative number (%) of TRAP positive multinucleate giant cells (osteoclasts) in culture on dentin slices (osteoclasts) [%] | Relative number (%) of Pit (osteoclasts) [%] | Relative area (%) of TRAP positive multinucleate giant cells (osteoclasts) in culture on plastic Petri dish [2] [%] | Relative number (%) of TRAP positive multinucleate giant cells (osteoclasts) in culture on plastic Petri dish [2] [%] | Relative value (%) of ALP [3] [%] | Relative ALP activity [4] | Intestine absorption, in words [5]
0.7 | N[C@@H](CO)C(=O)N1C[C@H](O)C[C@H]1C(=O)O [Comparative Example 3, Ser-Hyp] (H-Ser-[Hyp]-OH; N-terminus and C-terminus assumed) |  |  |  |  |  |  |  | 
 | O=C(O)[C@@H]1CCCN1 [Comparative Example 5, Proline] | 98 ± 10 | 119 ± 20 | 121 ± 23 | 125 ± 69 | 119 ± 44 | 97 ± 15 | 0.98 ± 0.1 | 
 | O=C(O)[C@@H]1C[C@@H](O)CN1 [Comparative Example 6, hydroxyproline] | 101 ± 1 | 141 ± 9 | 131 ± 11 | 117 ± 13 | 126 ± 4 | 103 ± 25 | 1.0 ± 0.01 | 
9.8 | O=C(O)CNC(=O)[C@@H]1C[C@@H](O)CN1 [Example 1, Hyp-Gly] (H-[Hyp]-Gly-OH; N-terminus and C-terminus assumed) |  |  |  |  |  |  |  | absorbed into intestine extremely rapidly and stably (without being decomposed into amino acids)
 | NCC(=O)O [Gly, glycine] |  |  |  |  |  |  | 1.1 ± 0.01 | 
21.3 | O=C(O)[C@@H]1C[C@@H](O)CN1C(=O)[C@@H]1CCCN1 [Referential Example 1-1, Pro-Hyp] (H-Pro-[Hyp]-OH; N-terminus and C-terminus assumed) |  |  |  |  |  |  |  | absorbed into intestine extremely rapidly and stably (without being decomposed into amino acids)
1.2 | C[C@H](N)C(=O)N1C[C@H](O)C[C@H]1C(=O)O [Referential Example 1-2, Ala-Hyp] (H-Ala-[Hyp]-OH; N-terminus and C-terminus assumed) |  |  |  |  |  |  |  | 
 | Leu-Hyp [Comparative Example 1] | 93 ± 12 | 101 ± 12 | 91 ± 11 | 83 ± 27 | 88 ± 22 | 92 ± 12 |  | 
 | Phe-Hyp [Comparative Example 2] | 109 ± 11 | 98 ± 11 | 109 ± 15 | 118 ± 21 | 119 ± 16 | 109 ± 11 |  | 
 | Pro-[Hyp]-Gly [Comparative Example 4] | 84 ± 14 | 91 ± 11 | 97 ± 13 | 113 ± 11 | 109 ± 15 | 103 ± 22 | 0.8 ± 0.01 | 
